Structures are written as SMILES. pIC50: −log10 of the molar value. Where two headings read alike, the source gives them in different places.

These results are taken from US8518956B2, “1-(1-(2-ethoxyethyl)-3-ethyl-7-(4-methylpyridin-2-ylamino)-1H-pyrazolo[4,3-d]pyrimidin-5-yl) piperidine-4-carboxylic acid and salts thereof” (priority 2005, dated 2013).

Assay [1] concerns spontaneously hypertensive rats (SHR). In words: Method 12: SHR Rat Combination Therapy, blood pressure by telemetry. It is filed as in vivo. The settings on record: 0.007% in drinking water, day 7.
A further assay has as its target T1, PDE5 enzyme (Homo sapiens, UniProt O76074).
T1 construct: The PDE5 enzyme isolated from human platelets; from tissue; host or cells: human platelets
In words: Method 1: Human Platelet PDE5 Enzyme Inhibition Scintillation Proximity Assay. It is filed as biochemical. Particulars: METHOD 1: PDE5 IC50, Table B, WO2004096810 examples. A digest of the protocol: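 Human platelet PDE5 hydrolysing 500 nM cGMP (3:1 unlabelled:[3H]) in Tris-HCl pH 7.4 with MgCl2 and BSA, 60 min at 30 °C. Reaction stopped with yttrium silicate SPA beads and [3H]GMP counted by scintillation. IC50 from sigmoid curves over a 10-point half-log dilution series, in duplicate.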
On the technique in general: SPA uses beads or plates that emit light when radiolabelled molecules are held near them.

Another assay has as its target T2, PDE11 enzyme (Homo sapiens, UniProt Q9HCR9, DUP921-921).
T2 construct: FLAG (N); made in house; host or cells: Sf9 insect cells (baculovirus, pFastBac)
In words: Method 3: Human Recombinant PDE11 Enzyme Inhibition Scintillation Proximity Assay (SPA). It is filed as biochemical. Particulars: WO2004096810 examples. As for the experimental part: Method 3: Human Recombinant PDE11 Enzyme Inhibition Scintillation Proximity Assay (SPA)
PDE11 Expression and Purification:
Incubate at 27° C. with 220 rpm shaking for 48 hours. Harvest the infected cells by pelleting at 2000 rpm for 10 minutes at 4° C. Store the infected cell pellet at −80° C. until ready for purification. Resuspend the thawed cell pellets to 1×10^7 cells/ml (=20 ml buffer consisting of 20 mM Hepes (pH7.2), 1 mM EDTA, 20 mM sucrose, 150 mM NaCl and protease inhibitor tablets). Mix thoroughly and allow to stand on ice for 10 minutes. Sonicate for 5×5 seconds, on ice. Spin the mixture at 12,000 rpm for 10 minutes at 4° C. in SS34. Store the insoluble pellet at −80° C., and proceed to the purification of the soluble material. • (b) Purification: Prepare the column (1.0 cm diameter, Kontes) by rinsing the empty column twice with TBS. Then mix beads (Anti-FLAG M2 Agarose, Sigma) with TBS and add to the column—allow the beads to settle. Wash the column with 3 column volumes of 0.1M glycine (pH3.5). […] Apply the extract to the column and allow the extract to enter by gravity flow. Reapply the flow-through. Wash the column with 15 column volumes of TBS. Elute the protein with 5×1 ml aliquots of FLAG peptide (Sigma) (i.e., 100 ug/ml in TBS). Elute the remaining protein with 1 ml 0.1M glycine, and immediately add 25 ul 1M Tris pH8 to neutralize. Method 3A: Alternative Human Recombinant PDE11 Enzyme Inhibition Scintillation Proximity Assay (SPA)

In a further assay the target is PDE6 enzyme. Particulars: read-out: METHOD 2: PDE6 IC50; Table F, WO2004096810 examples. An excerpt: Method 2: Human Retina PDE6 Enzyme Inhibition Scintillation Proximity Assay (SPA)
The inhibition of PDE6 enzyme activity by a test compound can be measured in accordance with the in vitro assay of Method 1, but instead using semi-purified PDE6 enzyme isolated from human, bovine or canine retina in place of PDE5 enzyme. […] [3H]GMP binds to yttrium silicate SPA beads and is detected by scintillation counting. • PDE6 Purification: PDE6 can be isolated and purified from the following: Soluble rod PDE6/Rod Outer Segment PDE6 from Bovine eyes (Charles River Ltd, France); Cone PDE6 from Canine eyes (LAS); or Soluble rod and Cone PDE6 from Human eyes (I.I.A.M.).
While supporting the eye with the cornea uppermost, make a small incision through the conjunctiva below the level of the iris. The incision should be sufficient to allow the humor to escape through the cut. Using fine scissors, cut around the cornea to enable it to be lifted off as a flap. Using a small hook, engage the lens and gently pull it out of orbit, taking care not to pull out the retina at the same time. Allow the retina to drop down of its own accord to the base of the orbit.
Lift the retina with care and locate the optic nerve. Cut through the optic nerve and transfer the retina to a small dish containing a few ml of homogenisation buffer. Gently float the retina out on the surface of the buffer and remove any obvious pigmented material from the iris. Place the retina in a second dish with clean buffer to remove last traces of pigment and then transfer to a 50 ml Corning Costar centrifuge tube (Sigma) and keep on ice. • PDE6 Isolation and Purification from Retina: Allow 2 mls of the homogenisation buffer per bovine retina and 1 ml per retina for dog and human. Homogenise using hand-held homogeniser 3×5 second bursts cooling on ice between each burst. Filter homogenate through two layers of surgical gauze. Spin at 100,000 g for 60 minutes at 4° C. […] Run through FPLC (Pharmacia FPLC LKB/FRAC-100, Pharmacia) or aliquot and store in liquid nitrogen as needed. Method 2A: Alternative Human Retina PDE6 Enzyme Inhibition Scintillation Proximity Assay (SPA)

The mark [2] stands for this setting: Table F, read-out: METHOD 3: PDE11 IC50.

T2 sequence (Q9HCR9 with tags, fused parts or gaps DUP921-921 limits assumed): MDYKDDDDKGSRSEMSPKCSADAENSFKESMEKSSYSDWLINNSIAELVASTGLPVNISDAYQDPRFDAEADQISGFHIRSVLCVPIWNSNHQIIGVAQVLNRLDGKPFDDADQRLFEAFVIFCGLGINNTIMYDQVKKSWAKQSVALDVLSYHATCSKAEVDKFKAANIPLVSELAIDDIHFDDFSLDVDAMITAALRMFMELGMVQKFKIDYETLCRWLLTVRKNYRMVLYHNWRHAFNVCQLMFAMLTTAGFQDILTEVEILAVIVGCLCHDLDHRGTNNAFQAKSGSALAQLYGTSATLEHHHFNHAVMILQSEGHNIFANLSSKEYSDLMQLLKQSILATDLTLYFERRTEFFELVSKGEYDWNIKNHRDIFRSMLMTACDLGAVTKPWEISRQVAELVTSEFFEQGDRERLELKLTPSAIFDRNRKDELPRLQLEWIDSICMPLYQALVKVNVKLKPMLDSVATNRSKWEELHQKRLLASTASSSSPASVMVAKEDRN

In the case of `CCOC(=O)[C@H](CCc1ccccc1)N[C@@H](C)C(=O)N1CCC[C@H]1C(=O)O` [Enalapril, enalapril], the “maximal reduction of blood pressure from pre-dose baseline in comparison to vehicle treated group” value in assay [1] is 22±2 mmHg.
With `Cc1ccnc(Nc2nc(N(C)[C@H]3CCN(C)C3)nc3c(C)nn(CCOCC(F)(F)F)c23)c1` [WO2004096810 Example 245], the figures for the pIC50 against PDE5 enzyme, at PDE11 enzyme (setting [2]) and on PDE6 enzyme were 8.81, 6.41 and 6.60, respectively.
The like results for `Cc1nccc(Nc2nc(N3CCN[C@H](C)C3)nc3c(C)nn(CCOCC(F)(F)F)c23)n1` [WO2004096810 Example 246] were, in that order, 8.35, 5.36 and 6.18.
For the molecule `CCc1nn(CCOCC(F)(F)F)c2c(Nc3ccnnc3)nc(N3CCN[C@H](C)C3)nc12` [WO2004096810 Example 248], the pIC50 was 9.52 at PDE5 enzyme, 6.50 at PDE11 enzyme (setting [2]) and 8.00 on PDE6 enzyme.
Turning to `CCc1nn(CCOCC(F)(F)F)c2c(Nc3ccncn3)nc(N3CCN[C@H](C)C3)nc12` [WO2004096810 Example 249], the pIC50 is 9.80 against PDE5 enzyme, 5.92 on PDE11 enzyme (setting [2]) and 8.29 on PDE6 enzyme.
The like results for `CCc1nn(CCOCC(F)(F)F)c2c(Nc3ccnc(C)n3)nc(N3CCN[C@H](C)C3)nc12` [WO2004096810 Example 250] were, in that order, 8.63, 5.51 and 6.66.
For the molecule `CCc1nn(CCOCC(F)(F)F)c2c(Nc3cc(C)ncn3)nc(N(C)C3CCN(C)CC3)nc12` [WO2004096810 Example 251], the pIC50 was 9.60 on PDE5 enzyme; 5.73 at PDE11 enzyme (METHOD 3: PDE11 IC50, Table F); 8.02 at PDE6 enzyme.
As to `COCc1nn(CCOCC(F)(F)F)c2c(Nc3cccc(C)n3)nc(N3CCN[C@H](C)C3)nc12` [WO2004096810 Example 252], the pIC50 at PDE5 enzyme was 8.55; at PDE11 enzyme (setting [2]), 6.06; at PDE6 enzyme, 6.51.
On the same counts, the results for `COCc1nn(CCOCC(F)(F)F)c2c(Nc3cccc(C)c3)nc(N3CCN[C@H](C)C3)nc12` [WO2004096810 Example 253] are 8.92, 6.51 and 7.00.
Consider `CCN(C)c1nc(Nc2ccc(=O)n(C)c2)c2c(n1)c(COC)nn2CCOCC(F)(F)F` [WO2004096810 Example 254], for which the results for the pIC50 at PDE5 enzyme, at PDE11 enzyme (setting [2]) and on PDE6 enzyme were 9.23, 5.54 and 6.73, respectively.
The like results for `CCOCc1nn(CCOCC(F)(F)F)c2c(Nc3cccc(C)n3)nc(N3CCN[C@H](C)C3)nc12` [WO2004096810 Example 255] were, in that order, 8.84, 6.03 and 6.68.
The like results for `CCOCc1nn(CCOCC(F)(F)F)c2c(Nc3cc(C)ccn3)nc(N3CCN[C@H](C)C3)nc12` [WO2004096810 Example 256] were, in that order, 8.42, 6.04 and 6.56.
As for `Cc1cccc(Nc2nc(N3CCNCC3)nc3c(C)nn(CCOCC(F)(F)F)c23)n1` [WO2004096810 Example 258], the pIC50 was 8.70 at PDE5 enzyme, 6.67 at PDE11 enzyme (setting [2]) and 6.70 at PDE6 enzyme.
Consider `COCc1nn(CCOCC(F)(F)F)c2c(Nc3cc(C)ccn3)nc(N3CC4CCC(C3)N4)nc12` [WO2004096810 Example 259], for which the pIC50 was 8.43 on PDE5 enzyme; 6.70 at PDE11 enzyme (METHOD 3: PDE11 IC50, Table F); 6.69 at PDE6 enzyme.

One may read the pIC50 as the negative decadic logarithm of the IC50, by convention in mol/L.
